These results are taken from US20240269104A1, “METHOD FOR TREATING PARKINSON'S DISEASE” (Olatec Therapeutics, Inc., priority 2021, published 2024).

One experiment deals with IL-1β. Description: IL-1β in brain homogenates by ELISA after MPTP. Type of experiment: in vivo, mice. The conditions noted are these: 200 mg/kg once each day; 4 days after MPTP-acute. An excerpt:
(§1) It has been reported that administration of MPTP induces the assembly of NLPR3 inflammasome in the brain. Mice were sacrificed after anesthesia by cervical dislocation at 4 and 7 days after MPTP administration. Brains were collected, and the striatum (St) and ventral midbrain (VM) areas of both hemispheres were excised and frozen in liquid nitrogen. Samples were homogenized in RIPA buffer (Thermo Fisher, Waltham, MA) supplemented with protease inhibitor (Thermo Fisher) using a TissueRuptor (Qiagen, Germantown, MD). Protein concentration was determined using a BCA Protein Assay Kit (Thermo Fisher) according to manufacturer's instructions. Samples were diluted to 2 mg/ml in the same extraction buffer.
(§2) Levels of IL-1β, IL-18, IL-6, and IL-17A from brain homogenates were measured by ELISA DuoSet kit (R&D Systems, Minneapolis, MN). ELISA kit for IL-1β detects 92-95% of the 17 kDa form and only 8-5% of the precursor form of this cytokine. 96-well plates (ThermoFisher Scientific) were coated with capture antibody. Samples were incubated for two hours at room temperature. Detection antibodies and streptavidin-HRP were added. TMB ELISA (cBioscience, San Diego, CA) was used as substrate solution. Results were measured in a microplate reader (Bio-Tek, Santa Clara, CA). Final values were normalized by the protein concentration of each sample. 4-5 mice per group were used for each cytokine.
(In an ELISA, binding on a coated surface is turned into a signal by an enzyme label.)

The subject of the next experiment is dopaminergic neurons. The experiment can be described thus: tyrosine hydroxylase (TH) immunostaining of the nigrostriatal pathway after MPTP. The conditions noted are these: 200 mg/kg for 7 days; seven days after MPTP-acute. The class given is in vivo, mice. The procedure: To evaluate the effect of dapansutrile on dopaminergic neurons, mice were subjected to MPTP acute administration. Seven days after, when the levels of dopaminergic neurons are lower, the nigrostriatal pathway was evaluated by tyrosine hydroxylase (TH) immunostaining to assess the viability of dopaminergic neurons. Mice were perfused with 4% paraformaldehyde (Sigma-Aldrich) in PBS. Brains were removed and immersed in the same perfusion buffer overnight and then cryoprotected with 30% sucrose in 0.1M PBS at 4° C. After dehydration, samples were embedded in paraffin molds for sectioning. Coronal brain sections (4 μm thick) containing the St and SNpc were obtained and transferred to glass microscope slides. After antigen retrieval, slides were incubated with primary anti-TH antibody (1:2000, Abcam, Cambridge, UK) for 30 minutes at room temperature. TH antibody binding was detected using an anti-rabbit HRP-conjugated secondary polymer, followed by chromogenic visualization with diaminobenzidine (DAB, Cell Signaling). Hematoxylin counterstain was used to visualize nuclei. Processing of the samples was performed by Inotiv Boulder (Boulder, CO). Dopaminergic immunoreactivity in the St was calculated by measuring the integrated density by NIH ImageJ software. Stereological counting in the SNpc was performed by manual quantification of TH-positive neurons. Three sections per mice were used. Five mice were used for the sham+saline group, and seven mice were used for the MPTP group.

In a further experiment the test system is IL-6. Description: IL-6 in LPS-stimulated cultured splenocytes from MPTP-injected mice. The class given is in vivo. The conditions noted are these: mice treated 200 mg/kg for seven days; splenocytes cultured with LPS, supernatant. The procedure: Seven days after MPTP-acute administration, peripheral blood and spleen were isolated from each mouse, and hematological changes in the peripheral blood and cytokine production in the spleen were evaluated. […] White blood cells, lymphocytes, monocytes, and granulocytes were measured from the peripheral blood using a HemaTrue cell counter (Heska, Loveland, CO). Spleens were isolated and mechanically passed through a 70 μm cell strainer (ThermoFisher) in PBS. Cells were plated in a 96-well plate at a concentration of 200,000 cells/well in RPMI medium (Coring, New York, NY) with 10% FBS. After that, cells were stimulated with LPS at 1 μg/ml and 5 μg/ml. RPMI medium was used as control. After 72 hours, supernatant was isolated to measure the levels of IL-6. Cells were lysed with RIPA buffer (ThermoFisher) supplemented with protease inhibitor (ThermoFisher) to measure IL-1α levels. In both cases, 5-6 mice per group were used.

Another experiment deals with IL-17A. The experiment can be described thus: IL-17A in brain homogenates by ELISA after MPTP. The class given is in vivo, mice. The conditions noted are these: 200 mg/kg once each day; seven days after MPTP-acute; MPTP+saline 58 pg/μg.
Excerpt: as §1, §2

Experiment [1] has as its system MPTP-injected-mouse model of PD. The experiment can be described thus: accelerating rotarod test after MPTP-acute administration. Type of experiment: in vivo, C56BL/J mice. The procedure: MPTP (Sigma-Aldrich, St. Louis, MO) can be administered at two dose regimens: acute and sub-acute. For the acute regimen, MPTP was administered intraperitoneally (i.p.) four times in one day. Administrations were performed every two hours over an eight-hour period. For the subacute regimen, mice received a single i.p. administration of MPTP per day for five consecutive days. A 20 mg/kg free-base MPTP dose was used for every dose in both models. Sterile saline was used as the vehicle. Control mice were injected with saline solution using the same administration protocol and were defined as sham. Mice were sacrificed at different days after the first injection of MPTP. We used the acute protocol in C56BL/J mice to study dopamine neurodegeneration, inflammation, and motor deficits, whereas the subacute model was used to evaluate α-synuclein aggregation in the following examples. […]
The accelerating rotarod (Ugo Basile, Gemonio, ITALY) was used to evaluate locomotor function in mice subjected to the MPTP-acute administration. An accelerating program was selected to detect locomotor impairments associated to MPTP (Keshet et al, J Comp Neurol 504:690-701, 2007; Rui et al., Int J Neuropsychopharmacol., 2020). We used a rotarod device with a cylinder rod of three centimeters in diameter. The mice underwent a training period of three consecutive days prior to MPTP administration. In each training session, mice were subjected to run at four constant speeds (10 rpm, 20 rpm, 30 rpm, and 40 rpm) for 150 seconds at each speed. If mice fell during that time, they were put back in the rotarod immediately. On the testing day, we used an increased-speed program. Mice were placed on the rotarod device for 150 seconds at 30 rpm as warm up. Immediately after 150 seconds, the accelerating session started, and the speed increased from 30 rpm to 70 rpm for 500 seconds. Time to fall was recorded. Accelerating sessions were repeated three times with a resting interval of five minutes between sessions. Average time to fall per mouse was calculated and used as final measurement.
We then evaluated the effect of dapansutrile. To avoid overloading animals with fluid (which can lead to fatal heart failure), dapansutrile was administered through oral gavage at 200 mg/kg in water. Dapansutrile was given 30 minutes before the first injection of MPTP. Mice treated with saline were used as control. We also included a sham-group that received saline through intraperitoneal injections instead of MPTP. […]

[2] abbreviates: 200 mg/kg once a day, three days after MPTP-acute.
Where [3] appears, read: 200 mg/kg oral gavage 30 minutes before first MPTP injection, day 3 after MPTP.

Structures are written as SMILES.

With `CS(=O)(=O)CCC#N` [dapansutrile, 3-methanesulfonylpropionitrile], in the experiment on IL-1β, the “levels of IL-1β in the ventral midbrain (VM)” value was “no changes associated to dapansutrile” and the “reduction of levels of IL-1β in the striatum (St)” value came to 24%. In the experiment on dopaminergic neurons, the “TH-positive fibers and neurons versus control mice” value is “no significant changes against control mice were observed”; the “density of TH-positive fibers in the striatum versus MPTP mice treated with saline” value is “increase”; the “increase of TH-positive neurons in the SNpc” value stood at 3 times. Also, the “IL-6 production by splenocytes” value in the experiment with IL-6 was “restoring the effects of MPTP”. In addition, the “levels of IL-17A in the ventral midbrain (VM) after treatment” value with IL-17A was determined as 46 pg/µg. Also, in experiment [1] (60 mg/kg once a day, three days after MPTP-acute), the “time to fall on accelerating rotarod versus MPTP+saline” value is recorded as “did not show any significant improvement”. Besides, in experiment [1] (setting [2]), the “mice that reached 8 cm/s on the rotarod” value is recorded as 7%, the “mice that reached the 7 cm/s speed on the rotarod” value is given as “approximately 50%”, the “time to fall on accelerating rotarod versus MPTP+saline” value was “doubling” and the “time to fall on accelerating rotarod versus sham mice” value is “nearly the same as the sham mice”. Besides, in experiment [1] (setting [3]), the “rotarod latency to fall, difference against sham group” value was “not significant differences” and the “time on the rotarod more than mice treated with water (latency to fall)” value was “around 90 seconds”.
